Source: US20250019377A1 (JACOBIO PHARMACEUTICALS CO., LTD, priority 2021, published 2025)

Key:
[1] = target: K-Ras G12V (Homo sapiens, UniProt P01116, G12V); experiment: SOS1 catalyzed nucleotide exchange assay (GDP form K-Ras), K-Ras G12V; conditions: read-out: K-Ras G12V GDP Biochemical Activity (IC50)
[2] = target: K-Ras G12D (Homo sapiens, UniProt P01116, G12D); experiment: biochemical
K-Ras G12D, sequence (P01116 1-169 isoform P01116-2 G12D): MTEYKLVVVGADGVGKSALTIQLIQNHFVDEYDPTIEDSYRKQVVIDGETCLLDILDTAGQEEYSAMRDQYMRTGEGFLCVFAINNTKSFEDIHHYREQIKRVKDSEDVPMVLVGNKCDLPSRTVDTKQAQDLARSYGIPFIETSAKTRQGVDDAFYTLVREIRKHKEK

K-Ras G12V, sequence (P01116 1-169 isoform P01116-2 G12V): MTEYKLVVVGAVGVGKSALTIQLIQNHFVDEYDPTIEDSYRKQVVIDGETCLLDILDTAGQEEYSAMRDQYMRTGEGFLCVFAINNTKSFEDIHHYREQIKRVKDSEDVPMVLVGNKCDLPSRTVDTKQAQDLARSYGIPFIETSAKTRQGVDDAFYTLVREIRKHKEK

IC50 [1]	IC50 [2]	SMILES
6.51 nM	4.13 nM	C#Cc1c(F)ccc2cc(OC(=O)CC[C@@H](C)[C@H]3CC[C@H]4[C@@H]5[C@H](O)C[C@@H]6C[C@H](O)CC[C@]6(C)[C@H]5C[C@H](O)[C@]34C)cc(-c3ncc4c(N5CCCOCC5)nc(OC[C@@]56CCCN5C[C@H](F)C6)nc4c3F)c12 [Compound 62, 5-ethynyl-6-fluoro-4-(8-fluoro-2-(((2R,7aS)-2-fluorotetrahydro-1H-pyrrolizin-7a(5H)-yl)methoxy)-4-(1,4-oxazepan-4-yl)pyrido[4,3-d]pyrimidin-7-yl)naphthalen-2-yl (R)-4-((3R,5S,7R,8R,9S,10S,12S,13R,14S,17R)-3,7,12-trihydroxy-10,13-dimethylhexadecahydro-1H-cyclopenta[a]phenanthren-17-yl)pentanoate trifluoroacetic acid]
1.63 nM	1.22 nM	C#Cc1c(F)ccc2cc(OC(=O)CCCC[C@@H]3SC[C@@H]4NC(=O)N[C@@H]43)cc(-c3ncc4c(N5CCCOCC5)nc(OC[C@@]56CCCN5C[C@H](F)C6)nc4c3F)c12 [Compound 63, 5-ethynyl-6-fluoro-4-(8-fluoro-2-(((2R,7aS)-2-fluorotetrahydro-1H-pyrrolizin-7a(5H)-yl)methoxy)-4-(1,4-oxazepan-4-yl)pyrido[4,3-d]pyrimidin-7-yl)naphthalen-2-yl 5-((3aS,4S,6aR)-2-oxohexahydro-1H-thieno[3,4-d]imidazol-4-yl)pentanoate trifluoroacetic acid]
1130 nM	438 nM	C#Cc1c(F)ccc2cc(OS(=O)(=O)c3ccccc3)cc(-c3ncc4c(N5CCCOCC5)nc(OC[C@@]56CCCN5C[C@H](F)C6)nc4c3F)c12 [Compound 68, 5-ethynyl-6-fluoro-4-(8-fluoro-2-(((2R,7aS)-2-fluorotetrahydro-1H-pyrrolizin-7a(5H)-yl)methoxy)-4-(1,4-oxazepan-4-yl)pyrido[4,3-d]pyrimidin-7-yl)naphthalen-2-yl benzenesulfonate trifluoroacetic acid]
202 nM	119 nM	C#Cc1c(F)ccc2cc(OCOC)cc(-c3ncc4c(N5CCCOC[C@@H]5C)nc(OC[C@@]56CCCN5C[C@H](F)C6)nc4c3F)c12 [Compound 69, (S)-4-(7-(8-ethynyl-7-fluoro-3-(methoxymethoxy)naphthalen-1-yl)-8-fluoro-2-(((2R,7aS)-2-fluorotetrahydro-1H-pyrrolizin-7a(5H)-yl)methoxy)pyrido[4,3-d]pyrimidin-4-yl)-3-methyl-1,4-oxazepane trifluoroacetic acid]
27.1 nM	30 nM	C#Cc1c(F)ccc2cc(OC(=O)c3c(C)cccc3N)cc(-c3ncc4c(N5CCCOCC5)nc(OC[C@@]56CCCN5C[C@H](F)C6)nc4c3F)c12 [Compound 70, 5-ethynyl-6-fluoro-4-(8-fluoro-2-(((2R,7aS)-2-fluorotetrahydro-1H-pyrrolizin-7a(5H)-yl)methoxy)-4-(1,4-oxazepan-4-yl)pyrido[4,3-d]pyrimidin-7-yl)naphthalen-2-yl 2-amino-6-methylbenzoate trifluoroacetic acid]

SMILES	IC50 [1]	IC50 [2]
C#Cc1c(F)ccc2cc(OC(=O)NC)cc(-c3ncc4c(N5CCCOCC5)nc(OC[C@@]56CCCN5C[C@H](F)C6)nc4c3F)c12 [Compound 67, 5-ethynyl-6-fluoro-4-(8-fluoro-2-(((2R,7aS)-2-fluorotetrahydro-1H-pyrrolizin-7a(5H)-yl)methoxy)-4-(1,4-oxazepan-4-yl)pyrido[4,3-d]pyrimidin-7-yl)naphthalen-2-yl methylcarbamate trifluoroacetic acid]	7.32 nM	5.5 nM
C#Cc1c(F)ccc2cc(OC(=O)N(C)CC(=O)OCC)cc(-c3ncc4c(N5CCCOCC5)nc(OC[C@@]56CCCN5C[C@H](F)C6)nc4c3F)c12 [Compound 71, ethyl N-(((5-ethynyl-6-fluoro-4-(8-fluoro-2-(((2R,7aS)-2-fluorotetrahydro-1H-pyrrolizin-7a(5H)-yl)methoxy)-4-(1,4-oxazepan-4-yl)pyrido[4,3-d]pyrimidin-7-yl)naphthalen-2-yl)oxy)carbonyl)-N-methylglycinate trifluoroacetic acid]	180 nM	163 nM
